Experimental findings from US10570129B2 (Zoetis Services LLC, priority 2015, dated 2020) are described below.

Like-named read-outs stand apart in the source and are kept apart here. Some results are limits rather than exact numbers.

One assay has as its system D. immitis microfilariae. Nature of the assay: Dirofilaria immitis, microfilariae (DiMF) in vitro motility assay. Type of assay: cell-based. To be noted: for minimal effective concentration: Dirofilaria immitis, 72 h, read-out: DiMF minimally effective dose (MEC).
The next assay concerns Haemonchus contortus L3. Nature of the assay: microbe, parasite or virus in culture. Type of assay: cell-based. To be noted: for minimal effective concentration: Haemonchus contortus, 96 h, read-out: HcL3 Minimal Effective Concentration (MEC).

In the case of `O=C(NCc1ccnc(Cl)c1)n1c2c(c3c(OC(F)(F)F)cccc31)CN(C/C=C/c1ccc(OC(F)(F)F)cc1)CC2` [Example 361, (E)-N-((2-chloropyridin-4-yl)methyl)-9-(trifluoromethoxy)-2-(3-(4-(trifluoro-methoxy)phenyl)allyl)-1,2,3,4-tetrahydro-5H-pyrido[4,3-b]indole-5-carboxamide], the minimal effective concentration is 57.4 µM with D. immitis microfilariae and over 100 µM with Haemonchus contortus L3.

Turning to `N#Cc1ccc2c(c1)c1c(n2C(=O)NCc2ccnc(Cl)c2)CCN(C/C=C/c2c(F)c(F)c(Cl)c(F)c2F)C1` [Example 84, (E)-2-(3-(4-chloro-2,3,5,6-tetrafluorophenyl)allyl)-N-((2-chloropyridin-4-yl)methyl)-8-cyano-1,2,3,4-tetrahydro-5H-pyrido[4,3-b]indole-5-carboxamide], the minimal effective concentration in the assay on D. immitis microfilariae was over 100 µM; in the assay with Haemonchus contortus L3, 0.1 µM.

Turning to `Cc1cc2c3c(n(C(=O)NCc4ccnc(Cl)c4)c2cc1C(F)(F)F)CCN(C/C=C/c1ccc(Cl)cc1)C3` [Example 330, (E)-2-(3-(4-chlorophenyl)allyl)-N-((2-chloropyridin-4-yl)methyl)-8-methyl-7-(trifluoromethyl)-1,2,3,4-tetrahydro-5H-pyrido[4,3-b]indole-5-carboxamide], the values for the minimal effective concentration in the assay with D. immitis microfilariae and in the assay with Haemonchus contortus L3 were over 100 µM and 0.5 µM, respectively.

Turning to `O=C(NCc1ccnc(Cl)c1)N1c2ccc(Cl)cc2C2CN(C/C=C/c3ccc(Cl)c(Cl)c3)CCC21` (stereo not shown) [Example 517, (E)-8-chloro-N-((2-chloropyridin-4-yl)methyl)-2-(3-(3,4-dichlorophenyl)allyl)-1,2,3,4,4a,9b-hexahydro-5H-pyrido[4,3-b]indole-5-carboxamide], in the assay on D. immitis microfilariae, the “DiMF minimally effective dose (MEC)” value was determined as 10.0 µM. Besides, the “HcL3 Minimal Effective Concentration (MEC)” value in the assay with Haemonchus contortus L3 is 0.5 µM.

Take `O=C(NCc1ccnc(F)c1)n1c2c(c3cc(Br)ccc31)CN(C/C=C/c1ccc(F)c(F)c1)CC2` [Example 191, (E)-8-bromo-2-(3-(3,4-difluorophenyl)allyl)-N-((2-fluoropyridin-4-yl)methyl)-1,2,3,4-tetrahydro-5H-pyrido[4,3-b]indole-5-carboxamide]: the minimal effective concentration with D. immitis microfilariae was 10 µM; with Haemonchus contortus L3, 0.3 µM.

On to “(E)-9-chloro-2-(3-(4-chlorophenyl)allyl)-N-((2-chloropyridin-4-yl)methyl)-8-fluoro-1,2,3,4-tetrahydro-5H-pyrido[4,3-b]indole-5-carboxamide [Example 318]”, for which the “DiMF minimally effective dose (MEC)” value in the assay on D. immitis microfilariae (decrease in microfilariae motility by subjective visual assessment, observed at 72 hours) worked out at 5.7 µM. Also, the “HcL3 Minimal Effective Concentration (MEC)” value in the assay on Haemonchus contortus L3 is 3.3 µM.

For the compound `O=C(NCc1ccnc(F)c1)n1c2c(c3cc(Br)ccc31)CN(C/C=C/c1ccc(F)c(Cl)c1)CC2` [Example 190, (E)-8-bromo-2-(3-(3-chloro-4-fluorophenyl)allyl)-N-((2-fluoropyridin-4-yl)methyl)-1,2,3,4-tetrahydro-5H-pyrido[4,3-b]indole-5-carboxamide], the minimal effective concentration in the assay on D. immitis microfilariae came out at 5.7 µM; in the assay on Haemonchus contortus L3, 1 µM.

On to `COc1ccc(/C=C/CN2CCc3c(c4c(OC(F)(F)F)cccc4n3C(=O)NCc3ccnc(Cl)c3)C2)cc1` [Example 359, (E)-N-((2-chloropyridin-4-yl)methyl)-2-(3-(4-methoxyphenyl)allyl)-9-(trifluoromethoxy)-1,2,3,4-tetrahydro-5H-pyrido[4,3-b]indole-5-carboxamide], for which the minimal effective concentration in the assay with D. immitis microfilariae and in the assay with Haemonchus contortus L3 was 3.3 µM each time.

Take `O=C(NCc1ccnc(F)c1)n1c2c(c3ccc(Cl)cc31)CN(C/C=C/c1ccc(F)cc1F)CC2` [Example 226, (E)-7-chloro-2-(3-(2,4-difluorophenyl)allyl)-N-((2-fluoropyridin-4-yl)methyl)-1,2,3,4-tetrahydro-5H-pyrido[4,3-b]indole-5-carboxamide]: the minimal effective concentration with D. immitis microfilariae is 1.8 µM; with Haemonchus contortus L3, over 100 µM.

Take `O=C(NCc1ccnc(F)c1)n1c2c(c3cc(F)c(Cl)cc31)CN(C/C=C/c1cc(F)cc(F)c1)CC2` [Example 316, (E)-7-chloro-2-(3-(3,5-difluorophenyl)allyl)-8-fluoro-N-((2-fluoropyridin-4-yl)methyl)-1,2,3,4-tetrahydro-5H-pyrido[4,3-b]indole-5-carboxamide]: the minimal effective concentration in the assay on D. immitis microfilariae was 5.7 µM; in the assay with Haemonchus contortus L3, over 100 µM.

For the compound `O=C(NCc1ccnc(Cl)c1)n1c2c(c3ccc(Cl)cc31)CN(C/C=C/c1ccc(F)cc1)CC2` [Example 217, (E)-7-chloro-N-((2-chloropyridin-4-yl)methyl)-2-(3-(4-fluorophenyl)allyl)-1,2,3,4-tetrahydro-5H-pyrido[4,3-b]indole-5-carboxamide], the minimal effective concentration in the assay on D. immitis microfilariae was 3.3 µM; in the assay on Haemonchus contortus L3, 1.8 µM.

On to `O=C(NCc1ccnc(F)c1)n1c2c(c3ccc(OC(F)(F)F)cc31)CN(C/C=C/c1ccc(Cl)c(F)c1)CC2` [Example 369, (E)-2-(3-(4-chloro-3-fluorophenyl)allyl)-N-((2-fluoropyridin-4-yl)methyl)-7-(trifluoromethoxy)-1,2,3,4-tetrahydro-5H-pyrido[4,3-b]indole-5-carboxamide], for which the minimal effective concentration was 10 µM in the assay with D. immitis microfilariae and 1 µM with Haemonchus contortus L3.

`N#Cc1cc2c(cc1F)c1c(n2C(=O)NCc2ccnc(F)c2)CCN(C/C=C/c2ccc(Cl)cc2)C1` [Example 174, (E)-2-(3-(4-chlorophenyl)allyl)-7-cyano-8-fluoro-N-((2-fluoropyridin-4-yl)methyl)-1,2,3,4-tetrahydro-5H-pyrido[4,3-b]indole-5-carboxamide]: the minimal effective concentration in the assay on D. immitis microfilariae is over 100 µM; in the assay on Haemonchus contortus L3 it was 57.4 µM.

Turning to `O=C(NCc1cnc(Cl)s1)n1c2c(c3c(Cl)cccc31)CN(C/C=C/c1ccc(Cl)cc1)CC2` [Example 231, (E)-9-chloro-2-(3-(4-chlorophenyl)allyl)-N-((2-chlorothiazol-5-yl)methyl)-1,2,3,4-tetrahydro-5H-pyrido[4,3-b]indole-5-carboxamide], the results for the minimal effective concentration in the assay with D. immitis microfilariae and with Haemonchus contortus L3 were 13.5 µM and 3.3 µM, respectively.

As for `O=C(NCc1ccnc(F)c1)n1c2c(c3cc(-c4ccc(F)cc4)ccc31)CN(C/C=C/c1ccc(Cl)cc1)CC2` [Example 463, (E)-2-(3-(4-chlorophenyl)allyl)-8-(4-fluorophenyl)-N-((2-fluoropyridin-4-yl)methyl)-1,2,3,4-tetrahydro-5H-pyrido[4,3-b]indole-5-carboxamide], the minimal effective concentration in the assay with D. immitis microfilariae and with Haemonchus contortus L3 was over 100 µM in each case.

Regarding `N#Cc1ccc(/C=C/CN2CCc3c(c4ccc(Cl)cc4n3C(=O)NCc3ccnc(Cl)c3)C2)cc1F` [Example 208, (E)-7-chloro-N-((2-chloropyridin-4-yl)methyl)-2-(3-(4-cyano-3-fluorophenyl)allyl)-1,2,3,4-tetrahydro-5H-pyrido[4,3-b]indole-5-carboxamide], the minimal effective concentration in the assay on D. immitis microfilariae was over 100 µM; in the assay with Haemonchus contortus L3 it was 1.8 µM.

`N#Cc1cc2c(cc1F)c1c(n2C(=O)NCc2ccnc(Cl)c2)CCN(C/C=C/c2ccc(Cl)c(F)c2)C1` [Example 172, (E)-2-(3-(4-chloro-3-fluorophenyl)allyl)-N-((2-chloropyridin-4-yl)methyl)-7-cyano-8-fluoro-1,2,3,4-tetrahydro-5H-pyrido[4,3-b]indole-5-carboxamide]: the minimal effective concentration in the assay on D. immitis microfilariae is over 100 µM; in the assay on Haemonchus contortus L3 it was 10 µM.

Consider `O=C(NCc1ccnc(F)c1)n1c2c(c3cc(F)c(OC(F)(F)F)cc31)CN(C/C=C/c1ccc(Cl)cc1)CC2` [Example 472, (E)-2-(3-(4-chlorophenyl)allyl)-8-fluoro-N-((2-fluoropyridin-4-yl)methyl)-7-(trifluoromethoxy)-1,2,3,4-tetrahydro-5H-pyrido[4,3-b]indole-5-carboxamide], for which the minimal effective concentration stood at 10 µM with D. immitis microfilariae and 1 µM in the assay on Haemonchus contortus L3.

Turning to `O=C(NCc1ccnc(Cl)c1)n1c2c(c3ccc(Cl)cc31)CN(C/C=C/c1ccc(Cl)c(F)c1)CC2` [Example 205, (E)-7-chloro-2-(3-(4-chloro-3-fluorophenyl)allyl)-N-((2-chloropyridin-4-yl)methyl)-1,2,3,4-tetrahydro-5H-pyrido[4,3-b]indole-5-carboxamide], the figures for the minimal effective concentration in the assay on D. immitis microfilariae and in the assay with Haemonchus contortus L3 were 18.2 µM and 1 µM, respectively.

In the case of `N#Cc1ccc2c(c1)c1c(n2C(=O)NCc2ccnc(F)c2)CCN(C/C=C/c2ccc(F)cc2Cl)C1` [Example 114, (E)-2-(3-(2-chloro-4-fluorophenyl)allyl)-8-cyano-N-((2-fluoropyridin-4-yl)methyl)-1,2,3,4-tetrahydro-5H-pyrido[4,3-b]indole-5-carboxamide], the results for the minimal effective concentration in the assay with D. immitis microfilariae and with Haemonchus contortus L3 were 10 µM and 0.1 µM, respectively.

`N#Cc1ccc(/C=C/CN2CCc3c(c4cc(C#N)ccc4n3C(=O)NCc3ccnc(Cl)c3)C2)cc1` [Example 91, (E)-N-((2-chloropyridin-4-yl)methyl)-8-cyano-2-(3-(4-cyanophenyl)allyl)-1,2,3,4-tetrahydro-5H-pyrido[4,3-b]indole-5-carboxamide]: the minimal effective concentration in the assay with D. immitis microfilariae came out at 13.5 µM; with Haemonchus contortus L3, 0.4 µM.

In the case of `N#Cc1ccc2c(c1)c1c(n2C(=O)NCc2ccnc(F)c2)CCN(C/C=C/c2cc(Cl)c(F)c(Cl)c2)C1` [Example 112, (E)-8-cyano-2-(3-(3,5-dichloro-4-fluorophenyl)allyl)-N-((2-fluoropyridin-4-yl)methyl)-1,2,3,4-tetrahydro-5H-pyrido[4,3-b]indole-5-carboxamide], the minimal effective concentration with D. immitis microfilariae is over 100 µM; in the assay on Haemonchus contortus L3 it was 0.5 µM.

Consider `COc1ccc2c(c1)c1c(n2C(=O)NCc2ccnc(Cl)c2)CCN(C/C=C/c2ccc(Cl)cc2)C1` [Example 512, (E)-2-(3-(4-chlorophenyl)allyl)-N-((2-chloropyridin-4-yl)methyl)-8-methoxy-1,2,3,4-tetrahydro-5H-pyrido[4,3-b]indole-5-carboxamide], for which the results for the minimal effective concentration in the assay with D. immitis microfilariae and in the assay with Haemonchus contortus L3 were 10 µM and 1 µM, respectively.
